Data reported in patent US9085786B2, “Process for the production of polyamines” (BASF SE, priority 2009, dated 2015).

Assays:
[1] = target: T1, AOX (alcohol oxidase) (Komagataella phaffii, UniProt P04842); format: biochemical; settings: for Relative activity / Vmax: pH 7.0, 100 mM MOPS-buffer; for Relative activity: ethanol = 100; for Vmax: compound as substrate
T1 sequence (P04842 1-663): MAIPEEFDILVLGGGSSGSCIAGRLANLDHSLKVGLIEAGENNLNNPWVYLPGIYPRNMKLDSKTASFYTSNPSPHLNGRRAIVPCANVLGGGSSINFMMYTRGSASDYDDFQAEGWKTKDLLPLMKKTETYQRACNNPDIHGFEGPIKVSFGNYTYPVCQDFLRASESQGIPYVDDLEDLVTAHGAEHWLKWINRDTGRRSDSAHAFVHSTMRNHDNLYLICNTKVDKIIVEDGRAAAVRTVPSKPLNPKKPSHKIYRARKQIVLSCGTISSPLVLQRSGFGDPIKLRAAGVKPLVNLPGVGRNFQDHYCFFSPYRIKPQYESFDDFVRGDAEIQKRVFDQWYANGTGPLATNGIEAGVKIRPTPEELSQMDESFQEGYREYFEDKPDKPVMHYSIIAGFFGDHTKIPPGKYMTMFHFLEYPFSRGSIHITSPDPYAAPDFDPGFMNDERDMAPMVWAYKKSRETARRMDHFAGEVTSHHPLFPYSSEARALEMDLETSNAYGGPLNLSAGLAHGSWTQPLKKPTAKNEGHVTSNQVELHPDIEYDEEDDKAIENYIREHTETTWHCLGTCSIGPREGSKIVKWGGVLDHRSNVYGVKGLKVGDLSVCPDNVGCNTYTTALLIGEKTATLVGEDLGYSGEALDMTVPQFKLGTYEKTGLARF
Description: In the AOX approach cofactor regeneration is not required. The reaction is further driven by the Catalase-catalyzed decomposition of hydrogen peroxide. […]
The enzyme was obtained from commercially available from Sigma Aldrich.
Reaction followed […] preference of one enantiomer over the other as substrate, as defined by the division of the specificity constants. The specificity constant is defined as kcat/Km.

[2] = tested on: HLADH (Horse Liver Alcohol Dehydrogenase); experiment: Kinetic constants for HLADH, spectrophotometric assay of NADH formation at 340 nm; format: biochemical, Equus caballus; settings: for Vmax / Relative activity / Km: pH 9.1, 100 mM CHES-buffer; for Vmax / Km: compound as substrate; for Relative activity: ethanol = 100; for E-value: pH 9.1, preference of one enantiomer over the other, ratio of specificity constants kcat/Km
Description: In the HLADH approach cofactor regeneration is accomplished by the use of vinyl acetate. Vinyl acetate rapidly hydrolyzes at pH 9.1, decomposing into acetic acid and acetic aldehyde. The aldehyde can be reduced by HLADH into ethanol, thereby forming NAD^+ from NADH. Unreacted acetic aldehyde can be removed by bubbling N2 after deactivating the enzyme with EDTA or H2O2. For the alcohol dehydrogenase HLADH the reaction was spectrophotometrically followed by the formation of NADH at 340 nm. Different concentrations of the various amino alcohols were used to obtain the Michaelis-Menten kinetic constants.
This reaction was performed at pH 9.1. The enzyme was obtained from commercially available from Sigma Aldrich.
Reaction catalysed by HLADH was followed spectrophotometrically at 340 nm, by the formation of NADH.

[3] = substrate: CCO; experiment: purified protein, by the assay type; settings: other: AOX, pH 7.0, 100 mM MOPS-buffer, compound as substrate

Row | Molecule | Relative activity [1] [%] | Vmax [2] [µmol/min/mg] | Relative activity [2] [%] | Catalysis of the reaction and appearance of aldehyde ([1]; ABTS replaced by pyrogallol or purpald, rates not reproducible) | Vmax [1] | Km [2] [mM] | E-value [2] | E-value ([1]; pH 7.0, preference of one enantiomer over the other, ratio of specificity constants kcat/Km) | Km [3] [mM] | Vmax [3] [µmol/min/mg]
1 | CC(O)CN (racemic) [1-Amino-propan-2-ol (rac), 1-Amino-propan-2-ol] | 0 | 0 | 0 | – | – | – | – | – | – | –
2 | NCC(O)c1ccccc1 (stereo not drawn) [2-Amino-1-phenyl ethanol] | – | – | – | the enzyme was catalysing the reaction and the appearance of aldehyde | – | – | – | – | – | –
3 | NCCO [2-Amino-ethanol] | ~0 | <0.005 | ~0 | – | Very low | – | – | – | – | –
4 | NCCCO [3-Amino-propan-1-ol] | 0.18 | 0.17 | 11 | – | 0.021 µmol/min/mg | 13 | – | – | – | –
5 | CCO [Ethanol, reference compound] | 100 | 1.5 | 100 | – | – | 0.6 | – | – | – | –
6 | NC[C@H](O)c1ccccc1 [R-2-Amino-1-phenyl-ethanol] | – | <0.002 | ~0 | – | – | – | >100 | – | – | –
7 | C[C@@H](N)CO [R-2-Amino-propan-1-ol] | 0.88 | <0.0007 | ~0 | – | 0.10 µmol/min/mg | – | >300 | 3.6 | – | –
8 | NC[C@@H](O)c1ccccc1 [S-2-Amino-1-phenyl-ethanol] | – | 0.21 | 14 | – | – | 6.2 | – | – | – | –
9 | C[C@H](N)CO [S-2-Amino-propan-1-ol] | 3.2 | 0.21 | 14 | – | 0.37 µmol/min/mg | 6.3 | – | – | – | –
10 | AOX (alcohol oxidase) (Komagataella phaffii GS115) (protein) MAIPEEFDILVLGGGSSGSCIAGRLANLDHSLKVGLIEAGENNLNNPWVYLPGIYPRNMKLDSKTASFYTSNPSPHLNGRRAIVPCANVLGGGSSINFMMYTRGSASDYDDFQAEGWKTKDLLPLMKKTETYQRACNNPDIHGFEGPIKVSFGNYTYPVCQDFLRASESQGIPYVDDLEDLVTAHGAEHWLKWINRDTGRRSDSAHAFVHSTMRNHDNLYLICNTKVDKIIVEDGRAAAVRTVPSKPLNPKKPSHKIYRARKQIVLSCGTISSPLVLQRSGFGDPIKLRAAGVKPLVNLPGVGRNFQDHYCFFSPYRIKPQYESFDDFVRGDAEIQKRVFDQWYANGTGPLATNGIEAGVKIRPTPEELSQMDESFQEGYREYFEDKPDKPVMHYSIIAGFFGDHTKIPPGKYMTMFHFLEYPFSRGSIHITSPDPYAAPDFDPGFMNDERDMAPMVWAYKKSRETARRMDHFAGEVTSHHPLFPYSSEARALEMDLETSNAYGGPLNLSAGLAHGSWTQPLKKPTAKNEGHVTSNQVELHPDIEYDEEDDKAIENYIREHTETTWHCLGTCSIGPREGSKIVKWGGVLDHRSNVYGVKGLKVGDLSVCPDNVGCNTYTTALLIGEKTATLVGEDLGYSGEALDMTVPQFKLGTYEKTGLARF | – | – | – | – | – | – | – | – | 1.3 | 12
